Literature values, collected in patent US20210181182A1, “METHOD FOR IDENTIFICATION OF PERTURBAGENS OF PARTICULAR BIOLOGICAL PROCESSES AND CELL SYSTEMS WITHIN LIVING CELLS” (priority 2018, published 2021).
Marks after values point to notes of the source that are not given here.

System: mitochondria membrane potential
Conditions: HepG2, 1-hour incubation at concentrations below 60 μM; cited from earlier work

Row | Compound | MMP assay hitCall
1 | CC(C)Oc1cccc(NC(=O)c2ccccc2C(F)(F)F)c1 [Flutolanil] | 1
2 | CNc1cnn(-c2cccc(C(F)(F)F)c2)c(=O)c1Cl [Norflurazon] | 0
3 | CCc1cccc(C)c1N(C(=O)CCl)C(C)COC (stereo not shown) [Metolachlor] | 0
4 | CCC(=O)Nc1ccc(Cl)c(Cl)c1 [Propanil] | 1
5 | CC(C)(C)c1cc([N+](=O)[O-])cc(C(C)(C)C)c1O [2,6-Di-tert-butyl-4-nitrophenol] | 1
6 | C=Cc1ccc(OC(C)=O)cc1 [4-Ethenylphenyl acetate] | 0
7 | COc1ccc(-c2ccccc2)cc1NNC(=O)OC(C)C [Bifenazate] | 1
8 | CCCCCCCCCCCC[N+](C)(C)Cc1ccccc1.[Cl-] [Benzyldimethyldodecylammonium chloride] | 1
9 | C=CC(=O)OCCOCCOCC [2-(2-Ethoxyethoxy)ethyl prop-2-enoate] | 0
10 | CC(=O)O[C@]1(C(C)=O)CC[C@H]2[C@@H]3C=C(Cl)C4=CC(=O)[C@@H]5C[C@@H]5[C@]4(C)[C@H]3CC[C@@]21C [Cyproterone acetate, reference compound] | 1
11 | CC(=O)N1CCN(c2ccc(OCC3COC(Cn4ccnc4)(c4ccc(Cl)cc4Cl)O3)cc2)CC1 (stereo not shown) [Ketoconazole, reference compound] | 1
12 | N#Cc1nc(Cl)c(Cl)c(Cl)c1Cl [3,4,5,6-Tetrachloro-2-pyridinecarbonitrile] | 1
13 | CC(C)=CC1C(C(=O)OCc2coc(Cc3ccccc3)c2)C1(C)C (stereo not shown) [Resmethrin] | 1
14 | Cc1ccccc1C(=O)Nc1cccc(OC(C)C)c1 [Mepronil] | 1
15 | CC(COc1ccc(Oc2ccccc2)cc1)Oc1ccccn1 (stereo not shown) [Pyriproxyfen] | 0
16 | CON=C(C(=O)OC)c1ccccc1CON=C(C)c1cccc(C(F)(F)F)c1 [Trifloxystrobin] | 1
17 | CO/N=C(/C1=NOCCO1)c1ccccc1Oc1ncnc(Oc2ccccc2Cl)c1F [Fluoxastrobin] | 1
18 | Cc1ccc(S(=O)(=O)NC(=O)NN2CCCCCC2)cc1 [Tolazamide, reference compound] | 0
19 | CC(C)(C)c1ccc(CSc2cnn(C(C)(C)C)c(=O)c2Cl)cc1 [Pyridaben, reference compound] | 1
20 | O=C(CCl)Nc1ccccc1 [2-Chloro-N-phenylacetamide] | 0
21 | C=CC(=O)OCCO [2-Hydroxyethyl acrylate] | 0*
22 | C#CCOS(=O)OC1CCCCC1Oc1ccc(C(C)(C)C)cc1 (stereo not shown) [Propargite] | 1
23 | CCOP(=S)(OCC)OC(Cl)C(Cl)(Cl)Cl (stereo not shown) [Chlorethoxyfos] | 1
24 | Oc1ccc(-c2ccccc2)cc1Cl [2-Chloro-4-phenylphenol] | 1
25 | Cc1cc(C)nc(Nc2ccccc2)n1 [Pyrimethanil] | 0
26 | Cc1ccc(-c2c(Cl)nc(C#N)n2S(=O)(=O)N(C)C)cc1 [Cyazofamid] | 1
27 | CCCCCC#CC(=O)OC [Methyl 2-octynoate] | 0
28 | CN1CSC(=S)N(C)C1 [Dazomet] | 0

Same assay, conditions: cited from earlier work

Row | Compound | MMP assay hitCall
29 | CC(C)Nc1ccc(Nc2ccccc2)cc1 [N-Isopropyl-N′-phenyl-p-phenylenediamine] | 0
30 | CN(C)c1ccc(N=O)cc1 [N,N-Dimethyl-4-nitrosoaniline] | 0
31 | Oc1ccc(C(c2ccc(O)cc2)(C(F)(F)F)C(F)(F)F)cc1 [Bisphenol AF] | 1
